Experimental data published in US11827657B2, “Boron containing pyrazole compounds, compositions comprising them, methods and uses thereof” (BOEHRINGER INGELHEIM ANIMAL HEALTH USA INC., priority 2020, dated 2023).

Target: JAK1 (Homo sapiens, UniProt P23458)
Experiment: Biochemical Kinase Assay (JAK), 33P-ATP filter-binding
Conditions: Biochemical Kinase Inhibition Assay; potency level of IC50; read-out: JAK1 (range)
Procedure, shortened: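 Radiometric filter-binding with 33P-ATP in pH 7.5 Hepes buffer with 10 mM MgCl2 and 1% DMSO. Compound preincubated with kinase and substrate 20 min at room temperature, reaction run 2 h at room temperature, spotted on P81 paper to give IC50.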

Sequence of JAK1 (P23458 whole entry, species assumed): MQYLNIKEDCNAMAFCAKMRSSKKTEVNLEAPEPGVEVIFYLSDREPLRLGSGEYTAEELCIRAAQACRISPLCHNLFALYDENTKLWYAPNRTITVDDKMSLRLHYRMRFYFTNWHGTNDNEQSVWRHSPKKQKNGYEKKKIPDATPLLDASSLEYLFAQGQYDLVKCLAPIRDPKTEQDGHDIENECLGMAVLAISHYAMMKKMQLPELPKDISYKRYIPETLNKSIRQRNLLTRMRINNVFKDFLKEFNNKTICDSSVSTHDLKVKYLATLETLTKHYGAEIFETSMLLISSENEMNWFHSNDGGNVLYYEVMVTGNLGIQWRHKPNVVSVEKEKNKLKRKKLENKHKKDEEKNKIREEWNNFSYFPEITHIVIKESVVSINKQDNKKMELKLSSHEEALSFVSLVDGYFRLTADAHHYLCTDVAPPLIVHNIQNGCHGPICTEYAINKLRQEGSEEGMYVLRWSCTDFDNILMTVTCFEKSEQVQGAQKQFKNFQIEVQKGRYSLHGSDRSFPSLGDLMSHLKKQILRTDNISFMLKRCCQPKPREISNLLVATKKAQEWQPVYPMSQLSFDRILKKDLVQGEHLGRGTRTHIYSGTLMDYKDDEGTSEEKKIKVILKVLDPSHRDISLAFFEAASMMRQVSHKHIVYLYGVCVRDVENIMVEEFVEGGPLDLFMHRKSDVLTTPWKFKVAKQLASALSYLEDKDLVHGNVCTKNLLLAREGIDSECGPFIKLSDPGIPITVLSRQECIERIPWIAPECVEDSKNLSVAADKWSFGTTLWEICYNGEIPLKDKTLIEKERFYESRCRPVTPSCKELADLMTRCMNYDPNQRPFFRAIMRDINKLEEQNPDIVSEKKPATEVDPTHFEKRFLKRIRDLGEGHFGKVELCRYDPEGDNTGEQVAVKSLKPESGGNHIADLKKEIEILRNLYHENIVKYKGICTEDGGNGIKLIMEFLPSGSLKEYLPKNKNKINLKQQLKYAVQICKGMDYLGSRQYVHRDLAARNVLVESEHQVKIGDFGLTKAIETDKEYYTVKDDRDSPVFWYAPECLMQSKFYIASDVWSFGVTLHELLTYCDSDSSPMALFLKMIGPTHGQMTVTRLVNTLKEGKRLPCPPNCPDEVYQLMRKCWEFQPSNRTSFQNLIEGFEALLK

SMILES	IC50
N#CC1CCOCC1n1cc(C(N)=O)c(Nc2cc(Cl)c3c(c2)C=CB(O)O3)n1 (stereo not drawn) [Example 13, 3-((8-chloro-2-hydroxy-2H-benzo[e][1,2]oxaborinin-6-yl)amino)-1-(trans-4-cyanotetrahydro-2H-pyran-3-yl)-1H-pyrazole-4-carboxamide]	< 10 nM
N#CC1CCOCC1n1cc(C(N)=O)c(Nc2ccc3c(c2)B(O)OC3)n1 (stereo not drawn) [Example 16, 1-(trans-4-cyanotetrahydro-2H-pyran-3-yl)-3-((1-hydroxy-1,3-dihydrobenzo[c][1,2]oxaborol-6-yl)amino)-1H-pyrazole-4-carboxamide]	< 10 nM
CC1=C(C)c2cc(Nc3nn(C4COCCC4C#N)cc3C(N)=O)cc(C)c2OB1O (stereo not drawn) [Example 23, 1-(trans-4-cyanotetrahydropyran-3-yl)-3-[(2-hydroxy-3,4,8-trimethyl-1,2-benzoxaborinin-6-yl)amino]pyrazole-4-carboxamide]	< 10 nM
Cc1cc(Nc2nn(C3COCCC3C#N)cc2C(N)=O)cc2c1OB(O)C=C2 (stereo not drawn) [Example 27, 1-[trans-4-cyanotetrahydro-2H-pyran-3-yl]-3-[(2-hydroxy-8-methyl-1,2-benzoxaborinin-6-yl)amino]pyrazole-4-carboxamide]	< 10 nM
CC1(C)OB(O)c2cc(Nc3nn(C4COCCC4C#N)cc3C(N)=O)ccc21 (stereo not drawn) [Example 36, 1-[trans-4-cyanotetrahydro-2H-pyran-3-yl]-3-[(1-hydroxy-3,3-dimethyl-2,1-benzoxaborol-6-yl)amino]pyrazole-4-carboxamide]	< 10 nM
N#CC1CCOCC1n1cc(C(N)=O)c(Nc2cc(F)c3c(c2)COB3O)n1 (stereo not drawn) [Example 38, 1-[trans-4-cyanotetrahydro-2H-pyran-3-yl]-3-[(7-fluoro-1-hydroxy-3H-2,1-benzoxaborol-5-yl)amino]pyrazole-4-carboxamide]	< 10 nM
CC(C)C1=Cc2cc(Nc3nn(C4COCCC4C#N)cc3C(N)=O)ccc2OB1O (stereo not drawn) [Example 48, 1-(trans-4-cyanotetrahydro-2H-pyran-3-yl)-3-((2-hydroxy-3-isopropyl-2H-benzo[e][1,2]oxaborinin-6-yl)amino)-1H-pyrazole-4-carboxamide]	< 10 nM
N#CC1CCOCC1n1cc(C(N)=O)c(Nc2cc(Cl)c3c(c2)COB3O)n1 (stereo not drawn) [Example 52, 3-((7-chloro-1-hydroxy-1,3-dihydrobenzo[c][1,2]oxaborol-5-yl)amino)-1-(trans-4-cyanotetrahydro-2H-pyran-3-yl)-1H-pyrazole-4-carboxamide]	< 10 nM

Results, then the molecule that gave them:

IC50	SMILES
< 10 nM	Cc1cc(Nc2nn(C3COCCC3C#N)cc2C(N)=O)cc2c1B(O)OC2 (stereo not drawn) [Example 6, 1-(trans-4-cyanotetrahydro-2H-pyran-3-yl)-3-[(1-hydroxy-7-methyl-3H-2,1-benzoxaborol-5-yl)amino]pyrazole-4-carboxamide]
< 10 nM	CC1=Cc2cc(Nc3nn(C4COCCC4C#N)cc3C(N)=O)cc(F)c2OB1O (stereo not drawn) [Example 14, 1-(trans-4-cyanotetrahydro-2H-pyran-3-yl)-3-[(8-fluoro-2-hydroxy-3-methyl-1,2-benzoxaborinin-6-yl)amino]pyrazole-4-carboxamide]
< 10 nM	CC(C)C1=CB(O)Oc2ccc(Nc3nn(C4COCCC4C#N)cc3C(N)=O)cc21 (stereo not drawn) [Example 30, 1-[trans-4-cyanotetrahydro-2H-pyran-3-yl]-3-[(2-hydroxy-4-isopropyl-1,2-benzoxaborinin-6-yl)amino]pyrazole-4-carboxamide]
< 10 nM	N#CC1CCOCC1n1cc(C(N)=O)c(Nc2ccc3c(c2)COB3O)n1 (stereo not drawn) [Example 41, 1-(trans-4-cyanotetrahydro-2H-pyran-3-yl)-3-((1-hydroxy-1,3-dihydrobenzo[c][1,2]oxaborol-5-yl)amino)-1H-pyrazole-4-carboxamide]
< 10 nM	N#CC1CCOCC1n1cc(C(N)=O)c(Nc2ccc3c(c2)B(O)OCC3)n1 (stereo not drawn) [Example 42, 1-[trans-4-cyanotetrahydro-2H-pyran-3-yl]-3-[(1-hydroxy-3,4-dihydro-2,1-benzoxaborinin-7-yl)amino]pyrazole-4-carboxamide]
< 10 nM	N#CC1CCOCC1n1cc(C(N)=O)c(Nc2ccc3c(c2)C(Cl)=CB(O)O3)n1 (stereo not drawn) [Example 43, 3-[(4-chloro-2-hydroxy-1,2-benzoxaborinin-6-yl)amino]-1-[trans-4-cyanotetrahydro-2H-pyran-3-yl]pyrazole-4-carboxamide]
< 10 nM	N#CC1CCOCC1n1cc(C(N)=O)c(Nc2cc(F)c3c(c2)C=CB(O)O3)n1 (stereo not drawn) [Example 44, 1-[trans-4-cyanotetrahydro-2H-pyran-3-yl]-3-[(8-fluoro-2-hydroxy-1,2-benzoxaborinin-6-yl)amino]pyrazole-4-carboxamide]
< 10 nM	N#CC1CCOCC1n1cc(C(N)=O)c(Nc2ccc3c(c2)C=CB(O)O3)n1 (stereo not drawn) [Example 51, 1-(trans-4-cyanotetrahydro-2H-pyran-3-yl)-3-[(2-hydroxy-1,2-benzoxaborinin-6-yl)amino]pyrazole-4-carboxamide]
